These results are taken from ChEMBL document CHEMBL1143485, “The synthesis and biological evaluation of dopamine transporter inhibiting activity of substituted diphenylmethoxypiperidines” (Bioorg Med Chem Lett, 2005).

The target in assay [1] is Sodium-dependent dopamine transporter (Rattus norvegicus, UniProt P23977). The assay can be described thus: Displacement of [125I]RTI-55 dopamine transporter binding in rat striatal membrane. It is filed as cell membranes, Striatum. A general note: Displacement assays read how much labelled ligand stays bound in the presence of the test substance.
The test system of another assay is Mus musculus. Nature of the assay: Locomotor activity in mice after intraperitoneal administration at 17.8 […]. It counts as functional.

SMILES strings stand for the structures.

Chain of Sodium-dependent dopamine transporter (P23977 whole entry): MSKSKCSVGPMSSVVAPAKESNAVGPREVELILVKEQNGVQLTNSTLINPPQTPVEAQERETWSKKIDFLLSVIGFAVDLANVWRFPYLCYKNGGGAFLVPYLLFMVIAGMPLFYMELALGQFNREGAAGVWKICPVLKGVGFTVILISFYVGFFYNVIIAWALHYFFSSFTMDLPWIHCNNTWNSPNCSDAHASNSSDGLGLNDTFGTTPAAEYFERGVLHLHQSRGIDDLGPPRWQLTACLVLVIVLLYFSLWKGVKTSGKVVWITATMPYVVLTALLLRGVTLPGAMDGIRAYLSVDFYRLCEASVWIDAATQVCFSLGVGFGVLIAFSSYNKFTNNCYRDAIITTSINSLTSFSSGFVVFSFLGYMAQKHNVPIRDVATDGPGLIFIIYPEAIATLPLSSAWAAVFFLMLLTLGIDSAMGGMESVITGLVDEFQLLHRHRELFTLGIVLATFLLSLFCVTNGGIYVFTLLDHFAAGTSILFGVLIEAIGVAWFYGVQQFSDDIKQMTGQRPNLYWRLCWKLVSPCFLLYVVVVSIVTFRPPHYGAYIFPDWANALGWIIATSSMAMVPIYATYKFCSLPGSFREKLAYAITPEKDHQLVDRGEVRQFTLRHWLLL

Consider `CC(OC1CCN(C)CC1)c1ccc(F)cc1` (centres undefined), for which the IC50 in assay [1] worked out at 264 nM. That is a sub-micromolar value.

As for `CN1CCC(OC(c2ccccc2)c2ccccc2)CC1`, the Activity with Mus musculus is 12.2 m/3h.

In turn, `CN1CCC(OC(c2ccccc2)c2ccc(Cl)cc2)CC1` (centres undefined) registered an Activity in the assay on Mus musculus of 5.89 m/3h. For the same compound, the IC50 in assay [1] came to 155 nM. Turning to `CN1CCC(OC(c2ccc(Cl)cc2)c2ccc(Cl)cc2)CC1`, in the assay on Mus musculus, the Activity turned out to be 5.18 m/3h. The IC50 in assay [1] was 44 nM.

Consider `Cc1cccc(C(OC2CCN(C)CC2)c2ccccc2)c1` (centres undefined), for which the IC50 in assay [1] is 293 nM. In the assay on Mus musculus, `COC(=O)[C@H]1[C@@H](OC(=O)c2ccccc2)C[C@@H]2CC[C@H]1N2C` [COCAINE] came in with an Activity of 16.7 m/3h. In the assay with Mus musculus, `CCCCN1CCC(OC(c2ccc(Cl)cc2)c2ccc(Cl)cc2)CC1` yielded an Activity of 3.87 m/3h. For the same compound, the IC50 in assay [1] was 12.5 nM.

Take `Fc1ccc(CN2CCC(OC(c3ccc(Cl)cc3)c3ccc(Cl)cc3)CC2)cc1`: the IC50 in assay [1] was 50.6 nM.

Consider `Fc1ccc(C(OCCN2CCN(CCCc3ccccc3)CC2)c2ccc(F)cc2)cc1` [VANOXERINE], for which the Activity with Mus musculus was 26.3 m/3h. In turn, `CN1CCC(OC(c2ccccc2)c2ccc(F)cc2)CC1` (centres undefined) returned a half-maximal inhibitory concentration (IC50) in assay [1] of 277 nM. In turn, `CN1CCC(OC(c2ccc(F)cc2)c2ccc(F)cc2)CC1` yielded an Activity in the assay on Mus musculus of 34.8 m/3h.

A word on the IC50: it is the midpoint of a concentration-inhibition curve. A high value points to weaker potency.
